{
  "source": "patent US11226337B2",
  "about": "“Chemoproteomic profiling of protein electrophilic and oxidative post-translational modifications” (Zenagem, LLC, priority 2017, dated 2022)",
  "test_in_all_cases": "SILAC RP-ABPP",
  "format_in_all_cases": "cell-based",
  "key": {"[1]": {"target": "T1, DCUN1D5 DCN1like protein 5 (Q9BTE7) (Homo sapiens, UniProt Q9BTE7)", "T1 construct": "shared by both the endogenous and recombinant forms of these proteins; endogenous in cells; host or cells: HEK293T and MDA-MB-231", "T1 sequence (Q9BTE7 whole entry)": "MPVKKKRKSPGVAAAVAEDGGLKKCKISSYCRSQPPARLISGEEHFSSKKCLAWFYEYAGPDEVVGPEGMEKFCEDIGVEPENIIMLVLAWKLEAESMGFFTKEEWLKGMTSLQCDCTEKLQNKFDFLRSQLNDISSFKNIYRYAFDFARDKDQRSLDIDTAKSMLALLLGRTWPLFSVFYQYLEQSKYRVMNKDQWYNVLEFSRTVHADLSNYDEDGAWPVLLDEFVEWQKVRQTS", "settings": "SILAC H/L, HEK293T", "outline": "(§1)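 SILAC cells (HEK293T, MDA-MB-231) grown near confluence; heavy: probe 1, 3 mM, 0.5 h; light: equal 3 or probe + 10× 3. Proteomes mixed equimolar, CuAAC with 100 μM biotin-azide, 1 h RT; enrichment, LC-MS. Ratios via CIMAGE-type extraction, ≥3 peptides.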"}, "[2]": {"target": "T2, APP Amyloid beta A4 protein (P05067) (Homo sapiens, UniProt P05067)", "T2 construct": "shared by both the endogenous and recombinant forms of these proteins; endogenous in cells; host or cells: HEK293T and MDA-MB-231", "T2 sequence (P05067 18-770)": "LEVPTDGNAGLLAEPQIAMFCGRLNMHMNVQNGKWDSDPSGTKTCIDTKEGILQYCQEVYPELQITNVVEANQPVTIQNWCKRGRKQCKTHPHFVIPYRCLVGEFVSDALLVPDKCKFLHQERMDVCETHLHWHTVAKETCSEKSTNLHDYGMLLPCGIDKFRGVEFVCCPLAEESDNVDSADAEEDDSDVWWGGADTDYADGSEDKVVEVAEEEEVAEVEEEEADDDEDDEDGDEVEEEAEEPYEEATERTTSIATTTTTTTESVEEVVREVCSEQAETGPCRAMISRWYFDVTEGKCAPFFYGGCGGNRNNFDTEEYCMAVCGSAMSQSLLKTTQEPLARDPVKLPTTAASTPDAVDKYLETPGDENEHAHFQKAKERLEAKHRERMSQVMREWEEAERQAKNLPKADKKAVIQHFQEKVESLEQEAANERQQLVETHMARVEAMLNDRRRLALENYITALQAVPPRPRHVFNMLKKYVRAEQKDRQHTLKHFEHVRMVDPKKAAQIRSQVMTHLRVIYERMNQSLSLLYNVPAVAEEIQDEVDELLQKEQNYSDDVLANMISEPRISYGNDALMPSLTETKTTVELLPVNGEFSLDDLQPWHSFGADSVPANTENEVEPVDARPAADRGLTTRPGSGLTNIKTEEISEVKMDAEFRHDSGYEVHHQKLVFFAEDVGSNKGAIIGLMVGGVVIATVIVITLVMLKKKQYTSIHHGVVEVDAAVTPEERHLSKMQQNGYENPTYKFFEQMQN", "settings": "SILAC H/L, MDA-MB-231", "outline": "as §1"}, "[3]": {"target": "T3, IRS4 Insulin receptor substrate 4 (O14654) (Homo sapiens, UniProt O14654)", "T3 construct": "In Situ Labelling of Cells with Hydrazine Probes for MS Experiments; endogenous in cells", "T3 sequence (O14654 whole entry)": "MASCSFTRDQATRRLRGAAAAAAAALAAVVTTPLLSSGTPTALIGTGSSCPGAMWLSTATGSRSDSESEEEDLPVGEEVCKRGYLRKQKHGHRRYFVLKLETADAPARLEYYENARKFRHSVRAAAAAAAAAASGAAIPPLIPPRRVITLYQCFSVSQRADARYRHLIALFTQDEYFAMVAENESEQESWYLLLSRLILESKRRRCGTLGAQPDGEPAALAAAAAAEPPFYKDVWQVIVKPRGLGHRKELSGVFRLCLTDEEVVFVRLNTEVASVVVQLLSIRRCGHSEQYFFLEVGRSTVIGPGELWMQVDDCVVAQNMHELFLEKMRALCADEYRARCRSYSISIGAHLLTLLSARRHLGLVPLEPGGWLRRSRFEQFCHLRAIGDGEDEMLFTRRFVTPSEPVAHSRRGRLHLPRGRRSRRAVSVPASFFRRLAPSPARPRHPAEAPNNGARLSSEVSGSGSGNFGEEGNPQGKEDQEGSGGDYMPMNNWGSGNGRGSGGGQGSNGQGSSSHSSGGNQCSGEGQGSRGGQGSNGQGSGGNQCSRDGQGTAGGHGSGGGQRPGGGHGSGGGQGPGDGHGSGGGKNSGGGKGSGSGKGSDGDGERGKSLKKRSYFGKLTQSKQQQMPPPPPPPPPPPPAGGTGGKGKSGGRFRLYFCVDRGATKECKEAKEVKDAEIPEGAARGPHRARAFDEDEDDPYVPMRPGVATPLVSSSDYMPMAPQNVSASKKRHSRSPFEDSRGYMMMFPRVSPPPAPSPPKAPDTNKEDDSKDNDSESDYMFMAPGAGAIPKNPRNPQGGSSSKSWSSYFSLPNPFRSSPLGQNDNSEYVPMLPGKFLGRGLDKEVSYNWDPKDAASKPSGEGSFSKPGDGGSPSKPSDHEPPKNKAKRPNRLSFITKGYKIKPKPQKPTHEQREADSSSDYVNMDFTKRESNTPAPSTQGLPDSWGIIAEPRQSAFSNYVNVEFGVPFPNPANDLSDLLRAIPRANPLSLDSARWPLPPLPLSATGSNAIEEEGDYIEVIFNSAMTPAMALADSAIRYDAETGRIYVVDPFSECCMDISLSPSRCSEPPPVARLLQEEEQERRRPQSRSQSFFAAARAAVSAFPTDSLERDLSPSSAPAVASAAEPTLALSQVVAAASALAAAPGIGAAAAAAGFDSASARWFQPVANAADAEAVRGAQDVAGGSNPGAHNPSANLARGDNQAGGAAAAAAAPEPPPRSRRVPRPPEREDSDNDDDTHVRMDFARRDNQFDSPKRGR", "settings": "SILAC H/L, HEK293T", "outline": "as §1"}, "[4]": {"target": "T4, GLA Alphagalactosidase A (P06280) (Homo sapiens, UniProt P06280)", "T4 construct": "shared by both the endogenous and recombinant forms of these proteins; endogenous in cells; host or cells: HEK293T and MDA-MB-231", "T4 sequence (P06280 32-429)": "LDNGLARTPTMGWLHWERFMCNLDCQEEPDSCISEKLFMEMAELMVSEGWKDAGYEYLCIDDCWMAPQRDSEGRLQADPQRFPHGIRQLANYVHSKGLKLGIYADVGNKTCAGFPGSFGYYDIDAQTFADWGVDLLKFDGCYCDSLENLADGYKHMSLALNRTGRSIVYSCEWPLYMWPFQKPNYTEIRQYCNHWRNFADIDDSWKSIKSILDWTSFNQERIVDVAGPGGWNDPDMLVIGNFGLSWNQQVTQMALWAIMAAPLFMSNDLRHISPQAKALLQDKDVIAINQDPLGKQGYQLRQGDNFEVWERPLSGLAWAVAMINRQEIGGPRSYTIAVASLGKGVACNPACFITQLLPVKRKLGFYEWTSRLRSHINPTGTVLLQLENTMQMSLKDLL", "settings": "SILAC H/L, HEK293T", "outline": "as §1"}, "[5]": {"target": "T5, CPVL Probable serine carboxypeptidase CPVL (Q9H3G5) (Homo sapiens, UniProt Q9H3G5)", "T5 construct": "shared by both the endogenous and recombinant forms of these proteins; endogenous in cells; host or cells: HEK293T and MDA-MB-231", "settings": "SILAC H/L, HEK293T", "outline": "as §1"}, "[6]": {"target": "T6, NSFL1C NSFL1 cofactor p47 (Q9UNZ2) (Homo sapiens, UniProt Q9UNZ2)", "T6 construct": "In Situ Labelling of Cells with Hydrazine Probes for MS Experiments; endogenous in cells", "T6 sequence (Q9UNZ2 whole entry)": "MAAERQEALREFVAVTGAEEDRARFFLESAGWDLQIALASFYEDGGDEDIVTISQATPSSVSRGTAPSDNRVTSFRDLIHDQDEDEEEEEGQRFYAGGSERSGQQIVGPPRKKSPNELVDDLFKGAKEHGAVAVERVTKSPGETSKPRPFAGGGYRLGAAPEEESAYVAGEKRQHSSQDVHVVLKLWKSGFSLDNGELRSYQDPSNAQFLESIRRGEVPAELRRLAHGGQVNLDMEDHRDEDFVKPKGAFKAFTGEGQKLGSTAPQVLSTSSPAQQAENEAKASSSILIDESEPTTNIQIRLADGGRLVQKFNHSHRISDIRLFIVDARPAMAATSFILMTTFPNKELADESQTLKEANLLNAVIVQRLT", "settings": "SILAC H/L, MDA-MB-231", "outline": "as §1"}, "[7]": {"target": "T7, VAPA Vesicleassociated membrane (Q9P0L0) (Homo sapiens, UniProt Q9P0L0)", "T7 construct": "In Situ Labelling of Cells with Hydrazine Probes for MS Experiments; endogenous in cells", "T7 sequence (Q9P0L0 whole entry)": "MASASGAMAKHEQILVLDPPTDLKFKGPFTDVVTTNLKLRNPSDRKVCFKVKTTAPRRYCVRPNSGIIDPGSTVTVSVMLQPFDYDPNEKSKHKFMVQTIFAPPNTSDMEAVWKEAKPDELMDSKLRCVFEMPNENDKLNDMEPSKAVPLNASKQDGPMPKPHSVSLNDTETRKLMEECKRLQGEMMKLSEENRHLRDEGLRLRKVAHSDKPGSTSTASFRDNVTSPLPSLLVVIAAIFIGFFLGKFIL", "settings": "SILAC H/L, MDA-MB-231", "outline": "as §1"}, "[8]": {"target": "T8, CCBL2 Kynurenine oxoglutarate transaminase (Q6YP21) (Homo sapiens, UniProt Q6YP21)", "T8 construct": "shared by both the endogenous and recombinant forms of these proteins; endogenous in cells; host or cells: HEK293T and MDA-MB-231", "T8 sequence (Q6YP21 whole entry)": "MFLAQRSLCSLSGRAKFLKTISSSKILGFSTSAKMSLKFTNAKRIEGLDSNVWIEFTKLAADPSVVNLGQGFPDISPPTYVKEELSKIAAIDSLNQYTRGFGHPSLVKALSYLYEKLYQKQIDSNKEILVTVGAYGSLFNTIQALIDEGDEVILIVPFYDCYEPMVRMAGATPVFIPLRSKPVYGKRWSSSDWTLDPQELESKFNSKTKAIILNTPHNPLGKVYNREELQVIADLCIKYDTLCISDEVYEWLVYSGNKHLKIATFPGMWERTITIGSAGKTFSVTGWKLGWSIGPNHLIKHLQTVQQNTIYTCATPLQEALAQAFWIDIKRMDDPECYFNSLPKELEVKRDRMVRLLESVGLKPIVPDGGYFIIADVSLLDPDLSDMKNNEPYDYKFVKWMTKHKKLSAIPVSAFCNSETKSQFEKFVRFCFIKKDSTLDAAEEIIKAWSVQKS", "settings": "SILAC H/L, HEK293T", "outline": "as §1"}, "[9]": {"target": "T9, ALDH9A1 4trimethylaminobutyraldehyde (P49189) (Homo sapiens, UniProt P49189)", "T9 construct": "shared by both the endogenous and recombinant forms of these proteins; endogenous in cells; host or cells: HEK293T and MDA-MB-231", "T9 sequence (P49189 whole entry)": "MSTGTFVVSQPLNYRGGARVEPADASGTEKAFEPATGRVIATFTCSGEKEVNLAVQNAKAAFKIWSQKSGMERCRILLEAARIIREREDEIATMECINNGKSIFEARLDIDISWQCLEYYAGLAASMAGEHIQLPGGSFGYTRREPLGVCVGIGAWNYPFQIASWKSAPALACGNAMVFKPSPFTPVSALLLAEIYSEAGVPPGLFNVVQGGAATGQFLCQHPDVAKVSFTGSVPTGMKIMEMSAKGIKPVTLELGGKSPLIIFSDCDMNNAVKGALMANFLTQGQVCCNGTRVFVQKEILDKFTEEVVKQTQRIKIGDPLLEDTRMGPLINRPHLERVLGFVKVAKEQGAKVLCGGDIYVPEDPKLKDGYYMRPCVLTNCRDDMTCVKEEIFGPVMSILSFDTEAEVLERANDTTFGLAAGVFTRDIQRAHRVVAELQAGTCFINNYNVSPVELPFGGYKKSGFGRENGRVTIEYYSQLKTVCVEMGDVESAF", "settings": "SILAC H/L, HEK293T", "outline": "as §1"}, "[10]": {"target": "T10, THBS1 Thrombospondin1 (P07996) (Homo sapiens, UniProt P07996)", "T10 construct": "In Situ Labelling of Cells with Hydrazine Probes for MS Experiments; endogenous in cells", "settings": "SILAC H/L, MDA-MB-231", "outline": "as §1"}, "[11]": {"target": "T11, BLVRB Flavin reductase (NADPH) (P30043) (Homo sapiens, UniProt P30043)", "T11 construct": "shared by both the endogenous and recombinant forms of these proteins; endogenous in cells; host or cells: HEK293T and MDA-MB-231", "T11 sequence (P30043 whole entry)": "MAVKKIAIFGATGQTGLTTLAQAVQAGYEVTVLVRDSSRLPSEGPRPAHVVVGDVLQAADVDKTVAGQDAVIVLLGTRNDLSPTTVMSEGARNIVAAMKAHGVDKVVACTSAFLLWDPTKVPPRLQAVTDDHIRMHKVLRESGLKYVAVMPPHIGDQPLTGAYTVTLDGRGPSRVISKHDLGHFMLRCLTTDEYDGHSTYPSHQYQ", "settings": "SILAC H/L, HEK293T", "outline": "as §1"}, "[12]": {"target": "T12, PITRM1 Presequence protease mitochondrial (Q5JRX3) (Homo sapiens, UniProt Q5JRX3)", "T12 construct": "In Situ Labelling of Cells with Hydrazine Probes for MS Experiments; endogenous in cells", "settings": "SILAC H/L, MDA-MB-231", "outline": "as §1"}, "[13]": {"target": "T13, PPA2 Inorganic pyrophosphatase 2 (Q9H2U2) (Homo sapiens, UniProt Q9H2U2)", "T13 construct": "In Situ Labelling of Cells with Hydrazine Probes for MS Experiments; endogenous in cells", "settings": "SILAC H/L, HEK293T", "outline": "as §1"}, "[14]": {"target": "T14, BLMH Bleomycin hydrolase (Q13867) (Homo sapiens, UniProt Q13867)", "T14 construct": "In Situ Labelling of Cells with Hydrazine Probes for MS Experiments; endogenous in cells", "T14 sequence (Q13867 whole entry)": "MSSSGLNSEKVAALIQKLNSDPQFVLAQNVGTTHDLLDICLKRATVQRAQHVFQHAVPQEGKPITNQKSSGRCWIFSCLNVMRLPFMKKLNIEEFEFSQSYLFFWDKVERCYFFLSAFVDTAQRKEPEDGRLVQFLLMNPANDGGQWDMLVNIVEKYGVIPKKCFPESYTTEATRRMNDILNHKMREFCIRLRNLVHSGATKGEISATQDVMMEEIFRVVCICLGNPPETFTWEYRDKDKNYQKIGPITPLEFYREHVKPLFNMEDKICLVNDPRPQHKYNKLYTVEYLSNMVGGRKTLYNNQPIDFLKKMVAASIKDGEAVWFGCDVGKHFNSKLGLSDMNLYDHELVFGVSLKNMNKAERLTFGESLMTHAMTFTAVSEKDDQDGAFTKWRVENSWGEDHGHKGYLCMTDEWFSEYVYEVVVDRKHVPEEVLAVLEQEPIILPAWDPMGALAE", "settings": "SILAC H/L, HEK293T", "outline": "as §1"}},
  "data": [
    {"smiles": "C#CCNN.Cl", "note": "[probe 1, prop-2-yn-1-ylhydrazine hydrochloride]", "values": [
      {"measurement": "enrichment ratioavg", "setting": "[1]; probe 1 3 mM 0.5 h vs probe 3", "value": 6},
      {"measurement": "competition ratioavg", "setting": "[1]; probe 1 vs probe 1+10x probe 3", "value": 2},
      {"measurement": "enrichment ratioavg", "setting": "[2]; probe 1 3 mM 0.5 h vs probe 3", "value": 16},
      {"measurement": "competition ratioavg", "setting": "[2]; probe 1 vs probe 1+10x probe 3", "value": 4},
      {"measurement": "enrichment ratioavg", "setting": "[3]; probe 1 3 mM 0.5 h vs probe 3", "value": 20},
      {"measurement": "competition ratioavg", "setting": "[3]; probe 1 vs probe 1+10x probe 3", "value": 1},
      {"measurement": "enrichment ratioavg", "setting": "[4]; probe 1 3 mM 0.5 h vs probe 3", "value": 11},
      {"measurement": "competition ratioavg", "setting": "[4]; probe 1 vs probe 1+10x probe 3", "value": 3},
      {"measurement": "enrichment ratioavg", "setting": "[5]; probe 1 3 mM 0.5 h vs probe 3", "value": 13},
      {"measurement": "competition ratioavg", "setting": "[5]; probe 1 vs probe 1+10x probe 3", "value": 3},
      {"measurement": "enrichment ratioavg", "setting": "[6]; probe 1 3 mM 0.5 h vs probe 3", "value": 8},
      {"measurement": "competition ratioavg", "setting": "[6]; probe 1 vs probe 1+10x probe 3", "value": 1},
      {"measurement": "enrichment ratioavg", "setting": "[7]; probe 1 3 mM 0.5 h vs probe 3", "value": 20},
      {"measurement": "competition ratioavg", "setting": "[7]; probe 1 vs probe 1+10x probe 3", "value": 1},
      {"measurement": "enrichment ratioavg", "setting": "[8]; probe 1 3 mM 0.5 h vs probe 3", "value": 10},
      {"measurement": "competition ratioavg", "setting": "[8]; probe 1 vs probe 1+10x probe 3", "value": 4},
      {"measurement": "enrichment ratioavg", "setting": "[9]; probe 1 3 mM 0.5 h vs probe 3", "value": 12},
      {"measurement": "competition ratioavg", "setting": "[9]; probe 1 vs probe 1+10x probe 3", "value": 2},
      {"measurement": "enrichment ratioavg", "setting": "[10]; probe 1 3 mM 0.5 h vs probe 3", "value": 16},
      {"measurement": "competition ratioavg", "setting": "[10]; probe 1 vs probe 1+10x probe 3", "value": 1},
      {"measurement": "enrichment ratioavg", "setting": "[11]; probe 1 3 mM 0.5 h vs probe 3", "value": 20},
      {"measurement": "competition ratioavg", "setting": "[11]; probe 1 vs probe 1+10x probe 3", "value": 2},
      {"measurement": "enrichment ratioavg", "setting": "[12]; probe 1 3 mM 0.5 h vs probe 3", "value": 12},
      {"measurement": "competition ratioavg", "setting": "[12]; probe 1 vs probe 1+10x probe 3", "value": 2},
      {"measurement": "enrichment ratioavg", "setting": "[13]; probe 1 3 mM 0.5 h vs probe 3", "value": 7},
      {"measurement": "competition ratioavg", "setting": "[13]; probe 1 vs probe 1+10x probe 3", "value": 1},
      {"measurement": "enrichment ratioavg", "setting": "[14]; probe 1 3 mM 0.5 h vs probe 3", "value": 9},
      {"measurement": "competition ratioavg", "setting": "[14]; probe 1 vs probe 1+10x probe 3", "value": 1}
    ]}
  ]
}
